From ChEMBL document CHEMBL1681695, “Chroman and tetrahydroquinoline ureas as potent TRPV1 antagonists” (Bioorg Med Chem Lett, 2011) come the findings set out here.

Each structure is given as a SMILES string.

Data set [1] has as its target Transient receptor potential cation channel subfamily V member 1 (Homo sapiens, UniProt Q8NER1). Kind of data set: Antagonist activity at human TRPV1 assessed as inhibition of calcium influx. The format is functional.
The target of another data set is CYP3A4 (Homo sapiens, UniProt P08684). Kind of data set: Inhibition of CYP3A4 at 10 uM. The format is ADME.
Data set [2] in a line: Ratio of drug uptake in brain to plasma in rat. The format is ADME.
The test system of data set [3] is Rattus norvegicus. Nature of the data set: Analgesic activity in rat assessed as inhibition of capsaicin-induced acute pain at 30 umol/kg, po. The format is functional.
Data set [4] has as its system Rattus norvegicus. Nature of the data set: Antihyperalgesic activity in po dosed rat assessed as inhibition of carrageenan-induced hyperalgesia. Type of data set: functional.
For data set [5], the system named is Rattus norvegicus. Nature of the data set: Antihyperalgesic activity in po dosed rat assessed as inhibition of CFA-induced hyperalgesia. The format is functional.
Data set [6] has as its system Rattus norvegicus. Kind of data set: Analgesic activity in rat assessed as inhibition of MIA-induced osteoarthritis pain at 30 umol/kg, po. Type of data set: functional.

Sequence of Transient receptor potential cation channel subfamily V member 1 (Q8NER1 whole entry): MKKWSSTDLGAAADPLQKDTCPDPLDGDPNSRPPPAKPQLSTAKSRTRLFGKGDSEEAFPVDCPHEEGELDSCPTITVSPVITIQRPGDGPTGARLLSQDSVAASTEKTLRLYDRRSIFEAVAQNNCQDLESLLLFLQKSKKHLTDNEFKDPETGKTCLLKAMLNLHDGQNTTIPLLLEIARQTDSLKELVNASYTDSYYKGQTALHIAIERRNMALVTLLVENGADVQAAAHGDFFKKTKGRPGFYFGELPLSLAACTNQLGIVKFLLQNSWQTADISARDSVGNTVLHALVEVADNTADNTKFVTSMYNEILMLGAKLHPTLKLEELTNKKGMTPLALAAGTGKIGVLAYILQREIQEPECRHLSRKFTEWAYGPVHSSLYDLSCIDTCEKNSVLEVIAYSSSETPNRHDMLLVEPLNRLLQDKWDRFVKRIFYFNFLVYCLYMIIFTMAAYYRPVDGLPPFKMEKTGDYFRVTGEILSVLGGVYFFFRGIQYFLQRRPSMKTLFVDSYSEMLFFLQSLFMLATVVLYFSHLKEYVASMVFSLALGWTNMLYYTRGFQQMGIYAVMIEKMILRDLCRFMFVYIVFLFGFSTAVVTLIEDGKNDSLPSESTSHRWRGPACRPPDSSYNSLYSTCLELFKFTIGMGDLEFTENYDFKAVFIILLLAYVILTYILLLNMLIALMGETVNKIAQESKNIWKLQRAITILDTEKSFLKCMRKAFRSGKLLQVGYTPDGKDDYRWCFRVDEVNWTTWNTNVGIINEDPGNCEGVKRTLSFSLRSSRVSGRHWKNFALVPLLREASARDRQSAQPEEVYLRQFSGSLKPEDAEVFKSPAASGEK
Sequence of CYP3A4 (P08684 whole entry): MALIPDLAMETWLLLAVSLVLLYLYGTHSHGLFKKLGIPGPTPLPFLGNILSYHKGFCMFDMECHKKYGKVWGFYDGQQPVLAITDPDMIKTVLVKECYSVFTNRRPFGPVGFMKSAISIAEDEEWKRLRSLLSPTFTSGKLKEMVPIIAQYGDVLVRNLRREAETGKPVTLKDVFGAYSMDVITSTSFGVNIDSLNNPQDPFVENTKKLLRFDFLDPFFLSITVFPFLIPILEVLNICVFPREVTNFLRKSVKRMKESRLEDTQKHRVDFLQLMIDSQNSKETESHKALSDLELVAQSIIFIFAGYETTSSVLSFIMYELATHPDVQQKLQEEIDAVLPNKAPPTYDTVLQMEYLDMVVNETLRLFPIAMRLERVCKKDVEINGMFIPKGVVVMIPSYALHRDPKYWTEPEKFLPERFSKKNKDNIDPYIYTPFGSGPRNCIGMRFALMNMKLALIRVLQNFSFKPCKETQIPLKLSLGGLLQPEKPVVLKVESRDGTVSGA

As for `O=C(Nc1cccc2[nH]ncc12)NC1CCOc2c1cccc2C(F)(F)F` (stereo unspecified), in data set [1], the half-maximal inhibitory concentration (IC50) (as a rule, the point on the concentration scale where inhibition reaches its midpoint) was 0.005 µM.
`CC(C)(C)c1cccc2c1OCC[C@H]2NC(=O)Nc1cccc2[nH]ncc12`: the IC50 in data set [1] was determined as 0.003 µM.
For `CN1CCC(NC(=O)Nc2cccc3[nH]ncc23)c2cccc(C(C)(C)C)c21` (stereo unspecified), the half-maximal inhibitory concentration (IC50) in data set [1] was determined as 0.006 µM.
Regarding `CN1CCC(NC(=O)Nc2cccc3[nH]ncc23)c2ccc(F)cc21` (stereo unspecified), in data set [1], the IC50 is 0.034 µM. For the same molecule, on CYP3A4, the inhibition (in general, how much of the control response was suppressed) at 10 µM worked out at 66%.
Consider `O=C(Nc1cccc2[nH]ncc12)NC1CCOc2c(C3CCCCC3)cccc21` (stereo unspecified), for which the IC50 in data set [1] is 0.015 µM.
For the molecule `CC(C)CCN1CCC(NC(=O)Nc2cccc3[nH]ncc23)c2cccc(Cl)c21` (stereo unspecified), in data set [1], the IC50 was 0.011 µM.
Regarding `O=C(Nc1cccc2[nH]ncc12)NC1CCOc2c1cccc2N1CCCCC1` (stereo unspecified), the IC50 in data set [1] was found to be 0.016 µM.
The same measure, in the same setting: the figure for `O=C(Nc1cccc2[nH]ncc12)N[C@H]1CCOc2cc(C(F)(F)F)ccc21` is 0.043 µM.
As to `COc1ccc2c(c1)C(NC(=O)Nc1cccc3[nH]ncc13)CCN2Cc1ccccc1` (stereo unspecified), the IC50 in data set [1] was found to be 0.16 µM. The same molecule registered an inhibition at 10 µM against CYP3A4 of 97%.
Consider `CC(C)(C)c1cccc2c1OCC[C@@H]2NC(=O)Nc1cccc2[nH]ncc12`, for which the IC50 in data set [1] came to 0.019 µM.
Regarding `O=C(Nc1cccc2[nH]ncc12)N[C@@H]1CCOc2cc(C(F)(F)F)ccc21`, the IC50 in data set [1] stood at 0.004 µM.
On the same count and under the same terms, the figure for `O=C(Nc1cccc2[nH]ncc12)NC1CCOc2c1cccc2N1CCOCC1` (stereo unspecified) is 0.11 µM.
Same read-out and setting: the figure for `CC(C)(C)c1ccc2c(c1)C(NC(=O)Nc1cccc3[nH]ncc13)CCN2Cc1ccccc1` (stereo unspecified) is 0.121 µM; for `O=C(Nc1cccc2[nH]ncc12)NC1CCN(Cc2ccccc2)c2ccc(F)cc21` (stereo unspecified) it is 0.066 µM.
On the same count and under the same terms, the figure for `CC(C)(C)c1ccc2c(c1)OCCC2NC(=O)Nc1cccc2[nH]ncc12` (stereo unspecified) is 0.043 µM; for `O=C(Nc1cccc2[nH]ncc12)NC1CCOc2c(OC(F)(F)F)cccc21` (stereo unspecified) it is 0.005 µM.
With `COc1ccc2c(c1)C(NC(=O)Nc1cccc3[nH]ncc13)CCN2CC1CCCCC1` (stereo unspecified), the IC50 in data set [1] came to 0.196 µM. This molecule also yielded an inhibition at 10 µM on CYP3A4 of 93%.
Take `CC(C)(C)c1ccc2c(c1)OCC[C@H]2NC(=O)Nc1cccc2[nH]ncc12`: the IC50 in data set [1] amounted to 0.031 µM.
Still for that read-out and setting: the figure for `Cc1ccc2c(c1)C(NC(=O)Nc1cccc3[nH]ncc13)CCO2` (stereo unspecified) is 0.933 µM; for `CN1CCC(NC(=O)Nc2cccc3[nH]ncc23)c2cc(C(C)(C)C)ccc21` (stereo unspecified) it is 0.853 µM.
For `O=C(Nc1cccc2[nH]ncc12)NC1CCN(Cc2ccccc2)c2ccccc21` (stereo unspecified), in data set [1], the IC50 was 0.07 µM. Moreover, on CYP3A4, at 10 µM the inhibition was 94%.
Consider `O=C(Nc1cccc2[nH]ncc12)NC1CCOc2ccc(F)cc21` (stereo unspecified), for which, in data set [1], the IC50 came to 0.718 µM.
Same read-out and setting: the figure for `O=C(Nc1cccc2[nH]ncc12)NC1CCOc2cc(OC(F)(F)F)ccc21` (stereo unspecified) is 0.008 µM.
In the case of `CN1CCC(NC(=O)Nc2cccc3[nH]ncc23)c2ccc(C(F)(F)F)cc21` (stereo unspecified), at 10 µM the inhibition against CYP3A4 was 47%.
Consider `O=C(Nc1cccc2[nH]ncc12)NC1CCOc2ccccc21` (stereo unspecified), for which, in data set [1], the IC50 is 0.234 µM.
With `CC(C)(C)c1cccc2c1OCCC2NC(=O)Nc1cccc2[nH]ncc12` (stereo unspecified), the IC50 in data set [1] was 0.005 µM. The partition ratio (Kp) (as a rule, the ratio of the level in a tissue or fluid to that in plasma or blood) in data set [2] is 0.42. The results for the inhibition in vivo at 30 µmol/kg in the data set with Rattus norvegicus [3] and in the data set on Rattus norvegicus [6] were 89% and 56%, respectively. Besides, the ED50 (in general, the midpoint of the dose-response relation) was determined as 10 µmol/kg in the data set with Rattus norvegicus [4] and 15 µmol/kg in the data set with Rattus norvegicus [5].
For `COc1ccc2c(c1)C(NC(=O)Nc1cccc3[nH]ncc13)CCN2C` (stereo unspecified), the IC50 in data set [1] amounted to 1.38 µM. At CYP3A4, this molecule gave an inhibition at 10 µM of 59%.
Regarding `CN1CCC(NC(=O)Nc2cccc3[nH]ncc23)c2ccc(C(C)(C)C)cc21` (stereo unspecified), the 50% inhibitory concentration (IC50) in data set [1] stood at 0.115 µM.
With `CN1CCC(NC(=O)Nc2cccc3[nH]ncc23)c2ccccc21` (stereo unspecified), the IC50 in data set [1] came to 0.215 µM. Besides, on CYP3A4, the inhibition at 10 µM was 65%.
Take `CC(C)(C)c1ccc2c(c1)OCC[C@@H]2NC(=O)Nc1cccc2[nH]ncc12`: the half-inhibitory concentration (IC50) in data set [1] was 1.2 µM.
